The source made the active and inactive calls. The calls are words filed in the database; no cut-off is given here.
What follows are compounds tested against T1, Fatty-acid amide hydrolase 1 (Homo sapiens, UniProt O00519) (assay: Inhibition of human FAAH expressed in human H4 cells).
T1 sequence (O00519 whole entry): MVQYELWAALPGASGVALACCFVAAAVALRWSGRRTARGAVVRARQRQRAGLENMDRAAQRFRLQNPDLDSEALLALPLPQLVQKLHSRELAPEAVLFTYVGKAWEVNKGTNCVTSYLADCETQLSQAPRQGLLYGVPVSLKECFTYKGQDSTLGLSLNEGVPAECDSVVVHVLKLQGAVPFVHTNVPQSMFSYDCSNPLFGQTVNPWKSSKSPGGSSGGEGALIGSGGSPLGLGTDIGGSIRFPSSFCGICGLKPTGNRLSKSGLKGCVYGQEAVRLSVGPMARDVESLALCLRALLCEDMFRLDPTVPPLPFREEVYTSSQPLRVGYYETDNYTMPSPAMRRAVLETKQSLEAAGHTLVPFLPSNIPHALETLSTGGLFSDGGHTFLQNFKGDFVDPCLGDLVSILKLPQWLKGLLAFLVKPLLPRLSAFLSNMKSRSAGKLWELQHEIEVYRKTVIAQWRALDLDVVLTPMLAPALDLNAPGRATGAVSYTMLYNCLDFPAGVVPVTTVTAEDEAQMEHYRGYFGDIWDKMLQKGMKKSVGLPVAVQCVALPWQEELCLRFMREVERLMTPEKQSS
Type: cell-based

Compound	IC50
CCOc1ccc(NC(=O)O/N=C/c2cccnc2)cc1	150 nM
CCCCCCCCCCCOc1ccc(NC(=O)O/N=C/c2ccc(F)cc2)cc1	0.4 nM
CCOc1ccc(NC(=O)O/N=C/c2ccccc2)cc1	81 nM
CCCCCCOc1ccc(NC(=O)ON=C(C)C)cc1	18 nM
CCCCCCCCCCCCOc1ccc(NC(=O)O/N=C/c2ccccc2)cc1	2.4 nM
CCCCCCCCCCCCOc1ccc(NC(=O)Oc2ccccc2F)cc1	13 nM
CCCCCOc1ccc(NC(=O)O/N=C/c2ccc(F)cc2)cc1	1.8 nM
CCCCCCCCOc1ccc(NC(=O)O/N=C/c2ccc(F)cc2)cc1	0.27 nM
CCCCCCCCCCOc1ccc(NC(=O)ON=C(C)C)cc1	2.2 nM
CCCCOc1ccc(NC(=O)O/N=C/c2ccccc2)cc1	8.5 nM
CCCCCCCOc1ccc(NC(=O)Oc2ccccc2)cc1	8.6 nM
CCCCCCCCCCOc1ccc(NC(=O)O/N=C/c2ccc(F)cc2)cc1	0.25 nM
CCCCCCCCOc1ccc(NC(=O)Oc2ccccc2)cc1	5.4 nM
CCCCCCCCCCCOc1ccc(NC(=O)Oc2ccccc2)cc1	1 nM
CCCCOc1cccc(NC(=O)ON=C(C)C)c1	6300 nM
CCCCCCCCCCOc1ccc(NC(=O)Oc2ccccc2)cc1	1.4 nM
CCCOc1ccc(NC(=O)O/N=C/c2ccccc2)cc1	9.3 nM
CCCCOc1ccc(CNC(=O)Oc2ccccc2F)cc1	9.2 nM
CCCCOc1ccc(CNC(=O)Oc2cccnc2)cc1	6.1 nM
CCCCOc1ccc(C(CC)NC(=O)Oc2ccc(F)cc2F)cc1 (stereo not drawn)	21 nM
CCc1ccc(-c2ccc(NC(=O)Oc3ccccc3F)cc2)cc1	810 nM
CCCCOc1ccc(NC(=O)ON=C(C)C)cc1OC	11000 nM
CCCCCCOc1ccc(NC(=O)O/N=C/c2ccccc2)cc1	8 nM
CCCCOc1ccc(NC(=O)Oc2ccc(F)cc2)cc1	120 nM
CCCCOc1ccc(CNC(=O)ON=C(C)C)cc1	570 nM
CCCCCOc1ccc(NC(=O)ON=C(C)C)cc1	28 nM

Compound	IC50
CCCCOc1ccc(C(CC)NC(=O)Oc2cccc(N(C)C)c2)cc1 (stereo not drawn)	54 nM
CCCCOc1ccc(NC(=O)O/N=C/c2cccnc2)cc1	14 nM
CCCCCCCCCOc1ccc(NC(=O)O/N=C/c2ccc(F)cc2)cc1	0.2 nM
CCCCOc1ccc(C(CC)NC(=O)Oc2ccc(OC)cc2)cc1 (stereo not drawn)	12 nM
COc1ccc(NC(=O)O/N=C/c2ccccc2)cc1	290 nM
CCCCCCCCCCOc1ccc(NC(=O)O/N=C/c2ccccc2)cc1	0.35 nM
CCCCCCCCCCCOc1ccc(NC(=O)Oc2ccccc2F)cc1	15 nM
CCCCCCOc1ccc(NC(=O)O/N=C/c2ccc(F)cc2)cc1	6.5 nM
CCCCOc1ccc(CNC(=O)Oc2ccc(F)cc2F)cc1	8.7 nM
CCCCCCOc1ccc(NC(=O)Oc2ccccc2F)cc1	710 nM
CCCCCCCOc1ccc(NC(=O)O/N=C/c2ccc(F)cc2)cc1	2.3 nM
CCCCCCOc1ccc(NC(=O)O/N=C/c2cccnc2)cc1	8.3 nM
CCCCOc1ccc(NC(=O)Oc2ccccc2F)cc1	340 nM
CCCCCCOc1ccc(NC(=O)Oc2ccccc2)cc1	31 nM
CCOc1ccc(NC(=O)O/N=C/c2ccc(F)cc2)cc1	46 nM
CCCCCCCCOc1ccc(NC(=O)Oc2ccccc2F)cc1	19 nM
CCCCOc1ccc(C(CC)NC(=O)Oc2ccc(F)cc2)cc1 (stereo not drawn)	12 nM
CCCCOc1ccc(C(CC)NC(=O)Oc2ccccc2F)cc1 (stereo not drawn)	7.7 nM
CCCCCCCOc1ccc(NC(=O)O/N=C/c2cccnc2)cc1	2.3 nM
CCCCOc1ccc(CNC(=O)Oc2cccc(Cl)c2)cc1	12 nM
CCCCCCCOc1ccc(NC(=O)ON=C(C)C)cc1	8.4 nM
CCCCCCCOc1ccc(NC(=O)Oc2ccccc2F)cc1	28 nM
CCCCCCCOc1ccc(NC(=O)O/N=C/c2ccccc2)cc1	8.6 nM
CCCCCCCCCOc1ccc(NC(=O)ON=C(C)C)cc1	2.1 nM
CCCCOc1ccc(CNC(=O)Oc2ccc(F)cc2)cc1	4.6 nM
CCCCCCCCCCCOc1ccc(NC(=O)O/N=C/c2cccnc2)cc1	0.15 nM

Compound	IC50
CCCCCCCCCCOc1ccc(NC(=O)O/N=C/c2cccnc2)cc1	0.35 nM
Cc1nc(-c2ccccc2)c(-c2ccccc2)n1CCCCCCNC(=O)Oc1ccccc1F	1.7 nM
CCCCCCCCOc1ccc(NC(=O)ON=C(C)C)cc1	2.4 nM
CCCCCCCCOc1ccc(NC(=O)O/N=C/c2ccccc2)cc1	0.43 nM
CCCCCCCCCCCOc1ccc(NC(=O)O/N=C/c2ccccc2)cc1	0.45 nM
CCCCCCCCOc1ccc(NC(=O)O/N=C/c2cccnc2)cc1	0.8 nM
CCCCOc1ccc(C(CC)NC(=O)Oc2ccccc2)cc1 (stereo not drawn)	12 nM
CCCCCCCCCCCCOc1ccc(NC(=O)ON=C(C)C)cc1	5 nM
CCCCOc1ccc(NC(=O)O/N=C/c2ccc(F)cc2)cc1	2.2 nM
CCCCOc1ccc(CNC(=O)Oc2cccc(C(F)(F)F)c2)cc1	40 nM
CCCOc1ccc(NC(=O)ON=C(C)C)cc1	210 nM
CCCCCCCCCCOc1ccc(NC(=O)Oc2ccccc2F)cc1	9.2 nM
O=C(Nc1ccc(Oc2ccccc2)cc1)Oc1ccccc1F	1300 nM
CCCCCOc1ccc(NC(=O)O/N=C/c2ccccc2)cc1	3.5 nM
CCCCOc1ccc(NC(=O)ON=C(C)C)cc1	28 nM
CCCCOc1ccc(C(CC)NC(=O)Oc2cccc(C(F)(F)F)c2)cc1 (stereo not drawn)	51 nM
CCCCCCCCCCCCOc1ccc(NC(=O)O/N=C/c2cccnc2)cc1	0.35 nM
CCCOc1ccc(NC(=O)O/N=C/c2ccc(F)cc2)cc1	13 nM
CCCCCCCCCCCCOc1ccc(NC(=O)Oc2ccccc2)cc1	1.8 nM
CCCCCCCCCOc1ccc(NC(=O)O/N=C/c2cccnc2)cc1	0.65 nM
CCCCCCCCCCCOc1ccc(NC(=O)ON=C(C)C)cc1	4.9 nM
CCCCCOc1ccc(NC(=O)O/N=C/c2cccnc2)cc1	6.1 nM
CCOc1ccc(NC(=O)ON=C(C)C)cc1	730 nM
CCCCCCCCCOc1ccc(NC(=O)O/N=C/c2ccccc2)cc1	0.25 nM
CCCOc1ccc(NC(=O)O/N=C/c2cccnc2)cc1	29 nM
CCCCCCCCCCCCOc1ccc(NC(=O)O/N=C/c2ccc(F)cc2)cc1	2.1 nM

What follows are compounds tested on Rattus norvegicus (assay: Antinociceptive activity in Sprague-Dawley rat assessed inhibition of thermal stimulus-induced hind paw withdrawal at 10 mg/kg, iv after 32 mins).
Type: functional, organism-based
Set-up: dose 10 mg/kg

Compound	Activity
CCCCOc1ccc(NC(=O)O/N=C/c2ccc(F)cc2)cc1	inactive

The compounds below were run on Rattus norvegicus (assay: Antinociceptive activity in iv dosed Sprague-Dawley rat assessed inhibition of thermal stimulus-induced hind paw withdrawal after 32 mins in presence of anandamide).
Type: functional, organism-based

Compound	Activity
CCCCOc1ccc(NC(=O)O/N=C/c2ccc(F)cc2)cc1	Dose-dependent effect

Each compound was assayed on Rattus norvegicus (assay: Antinociceptive activity in Sprague-Dawley rat assessed inhibition of thermal stimulus-induced hind paw withdrawal at 1 mg/kg, iv after 32 mins).
Type: functional, organism-based
Set-up: dose 1 mg/kg

Compound	Activity
CCCCOc1ccc(NC(=O)O/N=C/c2ccc(F)cc2)cc1	inactive

The compounds below were run against T1, Fatty-acid amide hydrolase 1 (assay: Competitive inhibition of human FAAH expressed in human H4 cells).
Type: cell-based

Compound	Ki
CCCCOc1ccc(NC(=O)O/N=C/c2ccc(F)cc2)cc1	30 nM

The compounds below were run against T2, Fatty-acid amide hydrolase 1 (Homo sapiens) (UniProt O00519) (assay: Inhibition of human FAAH-mediated anandamide hydrolysis expressed in human H4 cells assessed as reduction in initial reaction rate at 5 nM by fluorescence assay relative to vehicle control).
T2 sequence (whole entry): T1 sequence (O00519 whole entry)
Type: cell-based
Set-up: scale not given: the % may be the effect or the level left

Compound	Activity
CCCCOc1ccc(NC(=O)O/N=C/c2ccc(F)cc2)cc1	25%

Source: ChEMBL document CHEMBL1159055, “Oxime carbamate--discovery of a series of novel FAAH inhibitors” (Bioorg Med Chem Lett, 2010)
